Assay results reported in the supplement of paper PMC13380429.

How the values were obtained:
Details in all cases: 72 h
U2OS [1] = assay: cell viability relative to DMSO; higher = less toxic
HepG2 [2] = assay: as above
Calu-3 [3] = assay: as above
Caco-2 [4] = assay: as above
Vero E6 [5] = assay: as above
U2OS [6] = assay: drug sensitivity score (DSS) for viability; higher = more toxic; extreme values may be limits of the assay
HepG2 [7] = assay: as above
Calu-3 [8] = assay: as above
Caco-2 [9] = assay: as above
Vero E6 [10] = assay: as above
U2OS [11] = assay: relative viability EC50 (midpoint between 100% and the lowest measured viability); higher = less toxic
HepG2 [12] = assay: as above
Calu-3 [13] = assay: as above
Vero E6 [14] = assay: as above
Caco-2 [15] = assay: as above

| Compound | cell viability (U2OS [1]; 1 nM) [%] | cell viability (U2OS [1]; 10 nM) [%] | cell viability (U2OS [1]; 100 nM) [%] | cell viability (U2OS [1]; 1000 nM) [%] | cell viability (U2OS [1]; 10000 nM) [%] | cell viability (HepG2 [2]; 1 nM) [%] | cell viability (HepG2 [2]; 10 nM) [%] | cell viability (HepG2 [2]; 100 nM) [%] | cell viability (HepG2 [2]; 1000 nM) [%] | cell viability (HepG2 [2]; 10000 nM) [%] | cell viability (Calu-3 [3]; 1 nM) [%] | cell viability (Calu-3 [3]; 10 nM) [%] | cell viability (Calu-3 [3]; 100 nM) [%] | cell viability (Calu-3 [3]; 1000 nM) [%] | cell viability (Calu-3 [3]; 10000 nM) [%] | cell viability (Caco-2 [4]; 1 nM) [%] | cell viability (Caco-2 [4]; 10 nM) [%] | cell viability (Caco-2 [4]; 100 nM) [%] | cell viability (Caco-2 [4]; 1000 nM) [%] | cell viability (Caco-2 [4]; 10000 nM) [%] | cell viability (Vero E6 [5]; 1 nM) [%] | cell viability (Vero E6 [5]; 10 nM) [%] | cell viability (Vero E6 [5]; 100 nM) [%] | cell viability (Vero E6 [5]; 1000 nM) [%] | cell viability (Vero E6 [5]; 10000 nM) [%] | drug sensitivity score (U2OS [6]) | drug sensitivity score (HepG2 [7]) | drug sensitivity score (Calu-3 [8]) | drug sensitivity score (Caco-2 [9]) | drug sensitivity score (Vero E6 [10]) | relative viability EC50 (U2OS [11]) [µM] | relative viability EC50 (HepG2 [12]) [µM] | relative viability EC50 (Calu-3 [13]) [µM] | relative viability EC50 (Vero E6 [14]) [µM] | relative viability EC50 (Caco-2 [15]) [µM] |
| --- | --- | --- | --- | --- | --- | --- | --- | --- | --- | --- | --- | --- | --- | --- | --- | --- | --- | --- | --- | --- | --- | --- | --- | --- | --- | --- | --- | --- | --- | --- | --- | --- | --- | --- | --- |
| Nc1cccc(CNC(=O)c2ccc(Oc3ccc(OCc4cccc(F)c4)cc3)nc2)c1 | 99 | 106 | 94.8 | 101 | 92.1 | 92.9 | 102 | 103 | 91.8 | 77.9 | 104 | 101 | 96.1 | 97.7 | 81.9 | 100 | 102 | 91.5 | 107 | 71.2 | 93.4 | 99.9 | 98.8 | 102 | 99.3 | 0 | 1.7 | 0.7 | 0.9 | 0 | > 10 | > 10 | > 10 | > 10 |  |
| Cc1c(NC(=O)c2cc3c(s2)CCCC3)cccc1-c1cn(C)c(=O)c(Nc2ccc(C3C(=O)N(C)CCN3C)cc2)n1 (stereo in doubt) [GDC-0834] | 103 | 99.1 | 98.5 | 101 | 92.7 | 106 | 95.6 | 94.7 | 107 | 97.2 | 96.6 | 100 | 96.2 | 95.4 | 95.8 | 104 | 98.3 | 99.9 | 96.3 | 74.6 | 105 | 101 | 104 | 97.4 | 105 | 0 | 0 | 0 | 1.5 | 0 | > 10 | > 10 | > 10 | > 10 |  |
| CSc1nc(-c2ccc(F)cc2)c(-c2ccnc(N[C@@H](C)c3ccccc3)c2)[nH]1 [ML3403] | 99.9 | 99.1 | 100 | 94.8 | 90.9 | 100 | 101 | 97.6 | 105 | 86.5 | 101 | 99.1 | 103 | 94.5 | 89.8 | 94.6 | 93.4 | 97.3 | 94.2 | 74.2 | 102 | 105 | 101 | 99.8 | 88.7 | 0 | 0.1 | 0 | 1.9 | 0 | > 10 | > 10 | > 10 | > 10 |  |
| COCCCOc1cc(C[C@@H](C[C@H](N)[C@@H](O)C[C@H](C(=O)NCC(C)(C)C(N)=O)C(C)C)C(C)C)ccc1OC [aliskiren-hemifumarate] | 97.2 | 102 | 101 | 103 | 93.7 | 111 | 103 | 103 | 87.5 | 100 | 88.8 | 101 | 96.5 | 96 | 88 | 84.8 | 81.9 | 70.4 | 89.1 | 100 | 93.8 | 95.3 | 91.8 | 93.9 | 93.2 | 0 | 0 | 0 | 3.7 | 0 | > 10 | > 10 | > 10 | > 10 |  |
| CO/N=C(\C(=O)N[C@@H]1C(=O)N2C(C(=O)O)=C(CSc3nc(=O)c(O)nn3C)CS[C@H]12)c1csc(N)n1 [ceftriaxone] | 100 | 94.2 | 94.5 | 95.7 | 97.2 | 93 | 96.7 | 96.5 | 97.3 | 97.9 | 92.7 | 94.5 | 95.2 | 92 | 105 |  |  |  |  |  | 96.6 | 102 | 96 | 106 | 95.5 | 0 | 0 | 0 |  | 0 | > 10 | > 10 | > 10 | > 10 |  |
| C/C(=C\c1csc(C)n1)[C@@H]1C[C@@H]2O[C@]2(C)CCC[C@H](C)[C@H](O)[C@@H](C)C(=O)C(C)(C)[C@@H](O)CC(=O)O1 [epothilone-B] | 50.3 | 39.9 | 23.9 | 30.7 | 44.3 | 52.3 | 29.7 | 18.4 | 19.8 | 32 | 91.8 | 66 | 53.8 | 54.7 | 59.3 | 79.8 | 54.2 | 47.6 | 52.8 | 50.6 | 77.6 | 48.9 | 29.9 | 35.7 | 45.4 | 33.1 | 37.2 | 19 | 24 | 29.5 | < 0.001 | < 0.001 |  | 0.0026 | 0.0016 |
